# Assays:
# Type in all cases: in vivo, C57BL/6J male mice
# IL-1β = test: Inflammatory cytokine IL-1β in sciatic nerve (ELISA); details: 10 mg/kg i.p. once a day, 4th week
# Experimental: (§1) 9-week-old C57BL/6J male mice were purchased and familiarized with an animal facility for 1 week. 200 mg/kg of streptozotocin (streptozotocin; STZ) was administered […] into the peritoneal cavity of 10-week-old mice to prepare streptozotocin-induced diabetic mice (hereinafter also referred to as “STZ administration week 0”). One week after the administration of streptozotocin, blood was collected from the tail vein of the mice, and the blood glucose level (BS) was measured using an automatic blood glucose measuring device (product name: Medisafe (trademark) Mini GR-102, made by Terumo (Co)). Mice having a blood glucose level of 400 mg/dL or more were determined to be diabetic mice.
# (§2) The SMTP-44D groups, the edaravone group, and the pregabalin group were administered SMTP-44D (0.3 mg/kg, 3 mg/kg, or 30 mg/kg doses, respectively), edaravone (10 mg/kg dose), or pregabalin (10 mg/kg dose) into the peritoneal cavity once a day for 3 consecutive weeks from the day following the first week to the fourth week after STZ administration.
# (§3) The sciatic nerves of the above-mentioned STZ group, SMTP-44D group (30 mg/kg), edaravone group, pregabalin group, and control group mice on the 4th week were homogenized using the RIPA buffer containing a protease inhibitor cocktail. Moreover, centrifugation was conducted at 4° C. for 15 minutes at 10,000 g, and the supernatant was collected and used for measuring TNF-α concentration (pg/mL), IL-1β concentration (pg/mL), IL-6 concentration (pg/mL), and total protein concentration (μg/mL), respectively. An ELISA assay kit was used for the TNF-α, IL-1β, and IL-6 concentrations. The total protein concentration was measured by using a Pierce (trademark) BCA Protein Assay Kit. The inflammatory cytokine level (pg/mg protein) in the total protein was calculated from the TNF-α concentration (pg/mL), IL-1β concentration (pg/mL), and IL-6 concentration (pg/mL), and total protein concentration (μg/mL).
# [1] = tested on: streptozotocin-induced diabetic mice; test: Sciatic nerve blood flow; details: 10 mg/kg i.p. once a day, 4th week
# Experimental: as §1, §2
# (§4) Sciatic nerves of the above-mentioned STZ group, SMTP-44D groups, edaravone group, pregabalin group, and control group mice on the 4th week were exposed under isoflurane anesthesia, and then, using the full-field laser perfusion imager, their sciatic nerve blood flows (perfusion unit: PU) were measured. After the sciatic nerve blood flows were measured, a voltage was output from a PowerLab through the […] to impart an electrical stimulus to the sciatic nerves using needle electrodes. The electrical stimulus went through the Analog Stimulus Isolator via recording electrodes attached to the gastrocnemius and was input into the PowerLab, and thus neuromuscular function response curves were measured. The sciatic nerves were stimulated between two points at 8-mm intervals. The sciatic nerve conduction velocity (m/s) was calculated by dividing the […]. The sciatic nerve blood flow and sciatic nerve conduction velocity were measured using a Hot-1 small-sized heating controller and small-sized body temperature retention device (model number: […]-1), maintaining the rectal temperature at 37° C. The measurement results are described in Table 11.
# [2] = tested on: streptozotocin-induced diabetic mice; test: Thickness and G-ratio of myelin in the sciatic nerve; details: 10 mg/kg i.p. once a day, 4th week
# Experimental: as §1, §2
# The above-mentioned STZ group, SMTP-44D (30 mg/kg) group, edaravone group, pregabalin group, and control group mice in the 4th week were dissected to remove the sciatic nerves. The sciatic nerves were fixed using neutral buffered formalin and embedded using an Epon resin, and then semi-thin segments were formed and dyed using toluidine blue. The cross sections of the sciatic nerves in the respective specimens were examined using a microscope equipped with a digital camera at 400× magnification. The thickness of myelin ((diameter of axon including myelin diameter of axon)/2) and G-ratio (diameter of axon/diameter of axon including myelin) were measured.
# [3] = tested on: streptozotocin-induced diabetic mice; test: Hind plantar blood flow (laser perfusion imager); details: 10 mg/kg i.p. once a day
# Experimental: as §1, §2
# The hind plantar blood flows (perfusion unit: PU) of the above-mentioned STZ group, SMTP-44D groups, edaravone group, pregabalin group, and control group mice were measured under isoflurane anesthesia using a full-field laser perfusion imager.
# TNF-α = test: Inflammatory cytokine TNF-α in sciatic nerve (ELISA); details: 10 mg/kg i.p. once a day, 4th week
# Experimental: as §1, §2, §3
# [4] = Body weight (BW) in streptozotocin-induced diabetic mice; details: 10 mg/kg i.p. once a day
# Experimental: as §1, §2
# (§5) For the above-mentioned STZ group, SMTP-44D groups, edaravone group, pregabalin group, and control group mice, the following measurements were conducted every week from the 0th week, which began on the day when streptozotocin (STZ) was administered, to the 4th week (that is, a total of five times). As algesia tests, the following von Frey test and hot plate test were conducted, and hind plantar blood flow, body weight (BW), and blood glucose level (BS) were measured using the above-mentioned automatic blood glucose measure device. Note, for example, the 0th week represents the 0th day. That is, the measurements were conducted on the 0th, 7th, 14th, 21st, and 28th days.
# [5] = tested on: streptozotocin-induced diabetic mice; test: Blood glucose level (BS) in streptozotocin-induced diabetic mice; details: 10 mg/kg i.p. once a day
# Experimental: as §1, §2, §5
# [6] = tested on: streptozotocin-induced diabetic mice; test: Sciatic nerve conduction velocity; details: 10 mg/kg i.p. once a day, 4th week
# Experimental: as §1, §2, §4
# [7] = 0th week (before dosing), listed as edaravone
# [8] = 1st week (before dosing), listed as edaravone
compound,measurement,setting,value
"CC1=NN(c2ccccc2)C(=O)C1 [Edaravone, edaravone]",IL-1β,IL-1β,24.54 ± 4.52 pg/mg protein
same,IL-1β,IL-1β; listed as edaravone,24.54±4.52 pg/mg protein
same,Sciatic nerve blood flow,[1],1336.1 ± 46.7 PU
same,Sciatic nerve blood flow,[1]; listed as edaravone,1336.1±46.7 PU
same,G-ratio,[2],0.619 ± 0.005
same,Thickness of myelin,[2],1.42 ± 0.02 μm
same,G-ratio,[2]; listed as edaravone,0.619±0.005
same,Thickness of myelin,[2]; listed as edaravone,1.42±0.02 μm
same,Hind plantar blood flow,[3]; 0th week (before dosing),227.2 ± 12.5 PU
same,Hind plantar blood flow,[3]; [7],227.2±12.5 PU
same,Hind plantar blood flow,[3]; 1st week (before dosing),149.7 ± 11.5 PU
same,Hind plantar blood flow,[3]; [8],149.7±11.5 PU
same,Hind plantar blood flow,"[3]; 2nd week, listed as edaravone",161.4±9.1 PU
same,Hind plantar blood flow,[3]; 3rd week,166.6 ± 7.5 PU
same,Hind plantar blood flow,"[3]; 3rd week, listed as edaravone",166.6±7.5 PU
same,Hind plantar blood flow,[3]; 4th week,178.2 ± 9.9 PU
same,Hind plantar blood flow,"[3]; 4th week, listed as edaravone",178.2±9.9 PU
same,TNF-α,TNF-α,12.45 ± 2.06 pg/mg protein
same,TNF-α,TNF-α; listed as edaravone,12.45±2.06 pg/mg protein
same,Body weight decrease between the 0th week and 4th week,[4],2.4 g
same,BW (body weight),[4]; 0th week (before dosing),23.4 ± 0.3 g
same,BW (body weight),[4]; [7],23.4 ± 0.3 g
same,BW (body weight),[4]; 1st week (before dosing),21.9 ± 0.4 g
same,BW (body weight),[4]; [8],21.9 ± 0.4 g
same,BW (body weight),[4]; 2nd week,21.6 ± 0.4 g
same,BW (body weight),"[4]; 2nd week, listed as edaravone",21.6 ± 0.4 g
same,BW (body weight),[4]; 3rd week,21.3 ± 0.5 g
same,BW (body weight),"[4]; 3rd week, listed as edaravone",21.3 ± 0.5 g
same,BW (body weight),[4]; 4th week,21.0 ± 0.5 g
same,BW (body weight),"[4]; 4th week, listed as edaravone",21.0 ± 0.5 g
same,BS (blood glucose level),[5]; [7],221.0 ± 7.3 mg/dL
same,BS (blood glucose level),[5]; 1st week (before dosing),566.0 ± 32.6 mg/dL
same,BS (blood glucose level),[5]; [8],566.0 ± 32.6 mg/dL
same,BS (blood glucose level),[5]; 2nd week,567.5 ± 28.0 mg/dL
same,BS (blood glucose level),"[5]; 2nd week, listed as edaravone",567.5 ± 28.0 mg/dL
same,BS (blood glucose level),[5]; 3rd week,617.7 ± 373.3 mg/dL
same,BS (blood glucose level),"[5]; 3rd week, listed as edaravone",617.7 ± 37.3 mg/dL
same,BS (blood glucose level),[5]; 4th week,565.3 ± 35.1 mg/dL
same,BS (blood glucose level),"[5]; 4th week, listed as edaravone",565.3 ± 35.1 mg/dL
same,Sciatic nerve conduction velocity,[6],63.6 ± 1.8 m/s
same,Sciatic nerve conduction velocity,[6]; listed as edaravone,63.6±1.8 m/s

# Reference: US20220218664A1, “DRUG AND METHOD FOR TREATING OR PREVENTING COMPLICATIONS FROM DIABETES, USING SAID DRUG” (TMS Co., Ltd., priority 2019, published 2022)
